Test results as given in patent US20230228744A1, “DRY EYE DISEASE BIOMARKERS AND THEIR USE FOR TREATMENT” (Aldeyra Therapeutics, Inc., priority 2020, published 2023).

Legend:
dry eye disease patients = assay: Phase 3 clinical trial (RENEW-Part 1), VAS ocular dryness score over 12-week chronic treatment; type: in vivo, human; details: 0.25% reproxalap, 12-week treatment, as early as one week after treatment initiation
From the text: Treatment Difference of induction-maintenance dosing, defined as the difference between the changes from baseline for the evaluated drug vs. vehicle (LS Mean Difference ±95% CI). Ocular Dryness Score co-primary endpoint assessed in pre-specified patient population having an OD4S dryness baseline score of ≥3 (N=170). […] […] Source: Reproxalap RENEW-Part 1 clinical trial results and TRANQUILITY Run-In Cohort initial results. VAS=Visual Analog Scale; OD4S=Ocular Discomfort & 4-Symptom; CAC=Conjunctival Allergen Challenge; MMRM=Mixed Effect Model Repeated Measures.

[1] = test system: 4-hydroxynonenal protein adducts (HNE) in tears; assay: Phase 2/3 (TRANQUILITY) run-in cohort, ELISA of HNE-protein adducts in tears before and after dosing; type: in vivo, human; details: single doses of 0.25% reproxalap, average of two doses (Day 1 first dose, Day 2 post chamber), n=9; vehicle: increase of 32 pg/mL (n=7)
Description: [table] Tear RASP levels will be assessed via MMRM of change from pre to post dose on Day 1 and Day 2, with baseline (pre-dose) scores as a covariate, and dose and test article group as factors. Secondary Endpoints: • Visual analog scale eye dryness score assessed over 24 hours after first dose on Day 1, and over 90 minutes in CAE® (Key Secondary Symptom Endpoint) • Ora Calibra® Ocular Discomfort Scale assessed over 24 hours after first dose on Day 1, and over 90 minutes in CAE® • Ocular Discomfort & 4-Symptom Questionnaire assessed over 24 hours after first dose on Day 1, and before and after CAE® • Ora Calibra® Conjunctival Allergen Challenge Ocular Itching Scale assessed over 24 hours after first dose on Day 1, and before and after CAE® • Schirmer's Test change from baseline before and after the final dose on Day 1 • Change in tear RASP levels before and after Dose 1 and 2 on Day 1 and Dose 3 on Day 2. Conjunctival redness over 24 hours after first dose on Day 1. Visit 2 (Day 1, Baseline and In-Office Dosing) • Medical/Medication Update • Adverse Event Query • Visual Acuity (ETDRS) • Slit Lamp Biomicroscopy • Symptom Questionnaires • a. Ocular Discomfort & 4-Symptom Questionnaire • b. […] Ora Calibra® Conjunctival Allergen Challenge Ocular Itching Scale • Slit Lamp Biomicroscopy • Intraocular Pressure • Dilated Exam • Study Exit Data for the run-in cohort was obtained and analyzed. […]

CC(C)(O)c1nc2ccc(Cl)cc2cc1N [reproxalap, Reproxalap]
symptom improvements over vehicle (VAS ocular dryness score and multiple symptoms) (dry eye disease patients): statistically significant symptom improvements | average decline of HNE levels in tears, pre-dose to post-dose [1]: 1018 pg/mL
